Laboratory results: PubChem BioAssay AID336 (DTP/NCI, 2004)
Values joined by “and” are separate entries in the source; they are usually repeats but may differ in a detail not shown here. Equal entries are not always repeated. Toxic doses and inconclusive results are not listed.

System: BDF1 mice, P388/VCR leukemia ip, median survival T/C
Assay: NCI In Vivo Anticancer Drug Screen. Data for tumor model P388 Leukemia resistant to Vincristine; NSC 67574 (intraperitoneal) in B6D2F1 (BDF1) mice
Conditions: endpoint: median survival time, higher = longer survival
Experimental: The antitumor activity of compounds was measured in mice bearing transplantable tumors. Survival or tumor size were measured and the results are expressed as the measurement made in the treated group (T) divided by the measurement made in the vehicle treated control group (C). The tumor model used in this assay is P388 Leukemia resistant to Vincristine; NSC 67574 (intraperitoneal) in B6D2F1 (BDF1) mice

[1] = dose: 6.25 mg/kg/injection, schedule: Q01DX010 (ip), vehicle: saline
[2] = dose: 25.0 mg/kg/injection, schedule: Q01DX010 (ip), vehicle: saline
[3] = dose: 50.0 mg/kg/injection, schedule: Q01DX010 (ip), vehicle: saline
[4] = dose: 32.0 mg/kg/injection, schedule: Q01DX010 (ip), vehicle: saline
[5] = dose: 64.0 mg/kg/injection, schedule: Q01DX010 (ip), vehicle: saline
[6] = dose: 125.0 mg/kg/injection, schedule: Q01DX010 (ip), vehicle: saline
[7] = dose: 250.0 mg/kg/injection, schedule: Q01DX010 (ip), vehicle: saline
[8] = dose: 500.0 mg/kg/injection, schedule: Q01DX010 (ip), vehicle: saline

Compound: CO[C@@]12[C@H](COC(N)=O)C3=C(C(=O)C(C)=C(N)C3=O)N1C[C@@H]1N[C@@H]12
- T/C (dose: 1.08 mg/kg/injection, schedule: Q04DX003 (ip), vehicle: saline): 184 % of control
- T/C (dose: 1.8 mg/kg/injection, schedule: Q04DX003 (ip), vehicle: saline): 221 % of control
- T/C (dose: 3.0 mg/kg/injection, schedule: Q04DX003 (ip), vehicle: saline): 184 % of control
- T/C (dose: 5.0 mg/kg/injection, schedule: Q04DX003 (ip), vehicle: saline): 124 % of control

Compound: N=C(N)c1ccc(Nc2ccc(C(=N)N)cc2)cc1
- T/C (dose: 1.5 mg/kg/injection, schedule: Q01DX010 (ip), vehicle: saline): 106 % of control
- T/C (dose: 3.0 mg/kg/injection, schedule: Q01DX010 (ip), vehicle: saline): 92 % of control and 106 % of control
- T/C (dose: 6.0 mg/kg/injection, schedule: Q01DX010 (ip), vehicle: saline): 89 % of control and 106 % of control
- T/C (dose: 12.0 mg/kg/injection, schedule: Q01DX010 (ip), vehicle: saline): 92 % of control and 113 % of control

Compound: CS(=O)(=O)OCCCCOS(C)(=O)=O
- T/C [1]: 88 % of control and 96 % of control
- T/C [2]: 92 % of control
- T/C [3]: 96 % of control

Compound: CCN(CC)CCNc1ccc(CO)c2sc3ccccc3c(=O)c12
- T/C (dose: 21.6 mg/kg/injection, schedule: Q01DX009 (ip), vehicle: water): 109 % of control
- T/C (dose: 25.2 mg/kg/injection, schedule: Q01DX009 (ip), vehicle: water): 120 % of control
- T/C (dose: 36.0 mg/kg/injection, schedule: Q01DX009 (ip), vehicle: water): 112 % of control
- T/C (dose: 114.0 mg/kg/injection, schedule: Q01DX009 (ip), vehicle: water): 90 % of control

Compound: C[C@H]1C(=O)O[C@@H]2CCN3CC=C(COC(=O)[C@](C)(O)[C@@]1(C)O)[C@H]23
- T/C (dose: 1.56 mg/kg/injection, schedule: Q01DX010 (ip), vehicle: saline): 108 % of control
- T/C (dose: 3.13 mg/kg/injection, schedule: Q01DX010 (ip), vehicle: saline): 112 % of control
- T/C [1]: 91 % of control
- T/C (dose: 12.5 mg/kg/injection, schedule: Q01DX010 (ip), vehicle: saline): 100 % of control

Compound: C[n+]1ccc(Nc2ccc(NC(=O)c3ccc(Nc4cc[n+](C)c5ccc(N)cc45)cc3)cc2)cc1
- T/C (dose: 3.24 mg/kg/injection, schedule: Q04DX003 (ip), vehicle: water): 116 % of control

Compound: Nc1nc(SCc2ccccc2)c2[nH]cnc2n1
- T/C (dose: 8.0 mg/kg/injection, schedule: Q01DX010 (ip), vehicle: saline): 100 % of control
- T/C (dose: 16.0 mg/kg/injection, schedule: Q01DX010 (ip), vehicle: saline): 95 % of control and 100 % of control
- T/C [4]: 104 % of control and 109 % of control
- T/C [5]: 95 % of control and 100 % of control

Compound: COc1ccc(CC2C(=O)NC(C)C(=O)N(C)C3Cc4ccc(cc4)Oc4cc(ccc4O)CC(C(=O)NC(C)C(=O)NC(C)C(=O)N2C)N(C)C3=O)cc1 (configuration not stated)
- T/C (dose: 4.32 mg/kg/injection, schedule: Q04DX003 (ip), vehicle: other): 108 % of control
- T/C (dose: 7.2 mg/kg/injection, schedule: Q04DX003 (ip), vehicle: other): 103 % of control

Compound: NC(C/[N+]([O-])=N/O)C(=O)O (configuration not stated)
- T/C (dose: 173.0 mg/kg/injection, schedule: Q04DX003 (ip), vehicle: sodium bicarbonate): 157 % of control
- T/C (dose: 288.0 mg/kg/injection, schedule: Q04DX003 (ip), vehicle: sodium bicarbonate): 179 % of control
- T/C (dose: 480.0 mg/kg/injection, schedule: Q04DX003 (ip), vehicle: sodium bicarbonate): 181 % of control
- T/C (dose: 800.0 mg/kg/injection, schedule: Q04DX003 (ip), vehicle: sodium bicarbonate): 118 % of control

Compound: O=CCC(O)C(O)C(O)CO (configuration not stated)
- T/C [6]: 88 % of control
- T/C [7]: 88 % of control and 92 % of control
- T/C [8]: 92 % of control and 100 % of control

Compound: O=C(Nc1ccc(NC(=O)Nc2ccc(C3=NCCN3)cc2)cc1)Nc1ccc(C2=NCCN2)cc1
- T/C [7]: 150 % of control
- T/C (dose: 375.0 mg/kg/injection, schedule: Q01DX010 (ip), vehicle: saline): 154 % of control

Compound: CCCSc1ncnc2nc[nH]c12
- T/C (dose: 31.3 mg/kg/injection, schedule: Q01DX010 (ip), vehicle: saline): 95 % of control
- T/C (dose: 62.5 mg/kg/injection, schedule: Q01DX010 (ip), vehicle: saline): 95 % of control
- T/C [6]: 88 % of control and 95 % of control
- T/C [7]: 95 % of control

Compound: CC1CN=C(c2ccc(NC(=O)c3ccc(C(=O)Nc4ccc(C5=NCC(C)N5)cc4)cc3)cc2)N1 (configuration not stated)
- T/C (dose: 22.0 mg/kg/injection, schedule: Q01DX010 (ip), vehicle: saline): 113 % of control
- T/C (dose: 33.0 mg/kg/injection, schedule: Q01DX010 (ip), vehicle: saline): 109 % of control

Compound: CC[C@H]1CN2CCc3cc(OC)c(OC)cc3[C@@H]2C[C@@H]1C[C@@H]1c2cc(OC)c(OC)cc2CCN1CCN(CCCl)CCCl
- T/C (dose: 6.48 mg/kg/injection, schedule: Q04DX003 (ip), vehicle: saline with Tween-80): 107 % of control
- T/C (dose: 10.8 mg/kg/injection, schedule: Q04DX003 (ip), vehicle: saline with Tween-80): 111 % of control

Compound: CCC1(O)CC2CN(CCc3c([nH]c4ccccc34)C(C(=O)OC)(c3cc4c(cc3OC)N(C)C3C(O)(C(N)=O)C(O)C5(CC)C=CCN6CCC43C65)C2)C1 (configuration not stated) (tested in a mixture with another compound)
- T/C (dose: 500.0 micrograms/kg/injection, schedule: Q04DX003 (ip), vehicle: saline): 107 % of control
- T/C (dose: 648.0 micrograms/kg/injection, schedule: Q04DX003 (ip), vehicle: saline): 106 % of control
- T/C (dose: 1000.0 micrograms/kg/injection, schedule: Q04DX003 (ip), vehicle: saline): 118 % of control
- T/C (dose: 1080.0 micrograms/kg/injection, schedule: Q04DX003 (ip), vehicle: saline): 100 % of control
- T/C (dose: 1800.0 micrograms/kg/injection, schedule: Q04DX003 (ip), vehicle: saline): 98 % of control
- T/C (dose: 4000.0 micrograms/kg/injection, schedule: Q04DX003 (ip), vehicle: saline): 110 % of control

Compound: Cn1c(N)nc2nc[nH]c2c1=S
- T/C (dose: 10.0 mg/kg/injection, schedule: Q01DX010 (ip), vehicle: saline): 92 % of control and 100 % of control
- T/C (dose: 20.0 mg/kg/injection, schedule: Q01DX010 (ip), vehicle: saline): 96 % of control and 107 % of control
- T/C (dose: 40.0 mg/kg/injection, schedule: Q01DX010 (ip), vehicle: saline): 100 % of control and 123 % of control
- T/C (dose: 80.0 mg/kg/injection, schedule: Q01DX010 (ip), vehicle: saline): 96 % of control

Compound: COc1cc([C@@H]2c3cc4c(cc3[C@@H](OC3OC5COC(C)OC5C(O)C3O)[C@H]3COC(=O)[C@H]23)OCO4)cc(OC)c1O (some centres not stated)
- T/C (dose: 7.48 mg/kg/injection, schedule: Q04DX003 (ip), vehicle: other): 274 % of control
- T/C (dose: 12.5 mg/kg/injection, schedule: Q04DX003 (ip), vehicle: other): 250 % of control
- T/C (dose: 20.8 mg/kg/injection, schedule: Q04DX003 (ip), vehicle: other): 307 % of control
- T/C (dose: 34.6 mg/kg/injection, schedule: Q04DX003 (ip), vehicle: other): 340 % of control

Compound: Nc1cc(C(=O)Nc2ccc(C3=NCCN3)cc2)cc(C(=O)Nc2ccc(C3=NCCN3)cc2)c1
- T/C [4]: 156 % of control
- T/C [5]: 165 % of control

Compound: O=C1N[C@@H]([C@H]2CC[C@H](Cl)CN2)C(=O)N[C@H]1[C@H]1CC[C@H](Cl)CN1
- T/C (dose: 2.4 mg/kg/injection, schedule: Q04DX003 (ip), vehicle: saline): 212 % of control
- T/C (dose: 4.0 mg/kg/injection, schedule: Q04DX003 (ip), vehicle: saline): 225 % of control

Compound: O=C(Nc1ccc(C2=NCCN2)cc1)c1ccc(C(=O)Nc2ccc(C3=NCCN3)cc2)c(F)c1
- T/C (dose: 22.5 mg/kg/injection, schedule: Q01DX010 (ip), vehicle: saline): 100 % of control
- T/C (dose: 45.0 mg/kg/injection, schedule: Q01DX010 (ip), vehicle: saline): 107 % of control
- T/C (dose: 90.0 mg/kg/injection, schedule: Q01DX010 (ip), vehicle: saline): 123 % of control

Compound: CCOC(N)=O
- T/C [8]: 107 % of control and 119 % of control

Compound: O=C(Nc1ccc(C2=NCCN2)cc1)c1cc(Cl)cc(C(=O)Nc2ccc(C3=NCCN3)cc2)c1
- T/C (dose: 140.0 mg/kg/injection, schedule: Q01DX010 (ip), vehicle: saline): 100 % of control
- T/C (dose: 210.0 mg/kg/injection, schedule: Q01DX010 (ip), vehicle: saline): 109 % of control
- T/C (dose: 315.0 mg/kg/injection, schedule: Q01DX010 (ip), vehicle: saline): 100 % of control

Compound: CSc1ncnc2nc[nH]c12
- T/C [2]: 104 % of control and 107 % of control
- T/C [3]: 103 % of control and 116 % of control
- T/C (dose: 100.0 mg/kg/injection, schedule: Q01DX010 (ip), vehicle: saline): 112 % of control and 115 % of control
- T/C (dose: 200.0 mg/kg/injection, schedule: Q01DX010 (ip), vehicle: saline): 111 % of control and 112 % of control
